Drawing on patent publication US7271288B2, “Aromatic compounds” (Kyushu University, National University Corporation, priority 2002, dated 2007), this text covers solubility, gelation ability and gelation for three molecules.

The nature of data set [1]: Solubility observed when preparing samples for fluorescence measurement. In kind it is physicochemical. As to the method: Gels were prepared from compounds 1 and 2 with cyclohexane (hereinafter referred to as cyclohexane gel(s)). The concentration of compound 1 or 2 in cyclohexane was adjusted to 5 mM. Chloroform solutions of compounds 1, 2 and 3 (5×10^−5 M) were also prepared. The fluorescence spectroscopic measurement was carried out for each gel. The excitation wavelength λex for the measurements was 340 nm.
As both compounds 1 and 2 were soluble in hot cyclohexane, solid samples were prepared by dissolving the compounds in cyclohexane followed by removing the solvent with a rotary evaporator at room temperature. Each of the solid samples thus prepared was then subjected to fluorescence spectroscopic measurement. As shown in FIG. 8 and FIG. 9, the difference in the spectra reflecting the difference in the gel was also observed in the solid state. Therefore, it was confirmed that the assembly structure of the gel is maintained even in the solid state.

The nature of the next data set: Gelation test. The format is physicochemical. The settings on record: for gelation ability: 10 mM, 30 minutes at room temperature. On the set-up: key to gelation ability: I = insoluble; S = soluble; P = precipitate; G = gel; pG = partial gel. As for the experimental part:
To a septum-capped test tube (i.d. 5 mm) were added compounds 1 or 2 and a solvent (100 μl) so that the concentration of the resultant solution was 10 mM and the solution was sonicated and heated with a heat gun until the solid was dissolved. After standing for 30 minutes at room temperature, the sample was turned upside down and judged visually. […] The samples with no observed gel formation were subjected to standing at a lower temperature for further judgment.

SMILES strings stand for the structures.

Regarding `CCCCNC(=O)COc1cc2c3cc(OCC(=O)NCCCC)c(OCC(=O)NCCCC)cc3c3cc(OCC(=O)NCCCC)c(OCC(=O)NCCCC)cc3c2cc1OCC(=O)NCCCC` [Compound 2], the solubility entry in data set [1] (hot cyclohexane) is listed as “soluble”. For the same molecule, the gelation ability result in “Gelation test” (Benzene) is listed as “P”; in “Gelation test” (Carbon tetrachloride) it was “S”; in the data set “Gelation test” (Chloroform) it was “S”; in the data set “Gelation test” (Cyclohexane), “pG”; in the data set “Gelation test” (Diphenyl ether), “S”; in the data set “Gelation test” (Ethanol), “I”. In addition, the gelation ability result in the data set “Gelation test” (Ethyl acetate) is listed as “I”; in “Gelation test” (Hexane) it was “I”; in the data set “Gelation test” (Hexanol), “I”; in the data set “Gelation test” (Octane) it was “I”; in the data set “Gelation test” (Tetrahydrofuran) it was “P”; in “Gelation test” (Toluene) it was “P”. Further, in “Gelation test” (p-Xylene), the gelation ability entry is reported as “P”.

As to `CCCCCCCCCCCCNC(=O)COc1cc2c3cc(OCC(=O)NCCCCCCCCCCCC)c(OCC(=O)NCCCCCCCCCCCC)cc3c3cc(OCC(=O)NCCCCCCCCCCCC)c(OCC(=O)NCCCCCCCCCCCC)cc3c2cc1OCC(=O)NCCCCCCCCCCCC` [Compound 1], the solubility entry in data set [1] (hot cyclohexane) is “soluble”. In addition, the gelation ability result in “Gelation test” (Benzene) was “S”; in “Gelation test” (Carbon tetrachloride), “S”; in the data set “Gelation test” (Chloroform), “S”; in “Gelation test” (Cyclohexane) it was “G”; in the data set “Gelation test” (Diphenyl ether), “S”; in “Gelation test” (Ethanol), “I”. In addition, the gelation ability result in the data set “Gelation test” (Ethyl acetate) is given as “I”; in “Gelation test” (Hexane), “G”; in “Gelation test” (Hexanol), “P”; in “Gelation test” (Octane) it was “G”; in the data set “Gelation test” (Tetrahydrofuran), “S”; in the data set “Gelation test” (Toluene) it was “S”. In addition, in the data set “Gelation test” (p-Xylene), the gelation ability entry is listed as “G”.

As for `CCCCCCCCCCCCOc1cc2c3cc(OCCCCCCCCCCCC)c(OCCCCCCCCCCCC)cc3c3cc(OCCCCCCCCCCCC)c(OCCCCCCCCCCCC)cc3c2cc1OCCCCCCCCCCCC` [Compound 3, reference compound], the solubility entry in data set [1] (chloroform) is “soluble”; in data set [1] (cyclohexane), “soluble”; in “Gelation test” (solvents not specified), “high solubility”. In addition, the gelation result in “Gelation test” (solvents not specified) was “no gelation was observed”.
